The CheMixHub viscosity set
± gives the uncertainty stated by the source.

Experiment: xn = mol fraction of the nth substance listed

CC(CC(C)(C)C)CP(=O)(O)CC(C)CC(C)(C)C (configuration not stated) + C1CCCCC1
298.15 K, 101 kPa
Conditions | viscosity [mPa·s]
x1 = 0.007 | 0.95 ± 0.011
x1 = 0.0117 | 0.998 ± 0.012
x1 = 0.015 | 1.052 ± 0.012
x2 = 0.1098 | 97.92 ± 1.5
x2 = 0.1822 | 85 ± 1.2
x2 = 0.3325 | 59.34 ± 0.68
x2 = 0.505 | 32.7 ± 0.38
x2 = 0.6519 | 16.56 ± 0.19
x2 = 0.7568 | 8.757 ± 0.1
x2 = 0.7617 | 8.623 ± 0.099
x2 = 0.851 | 4.302 ± 0.05
x2 = 0.8636 | 3.779 ± 0.044
x2 = 0.8895 | 3.032 ± 0.035
x2 = 0.9226 | 2.188 ± 0.026
x2 = 0.9255 | 2.102 ± 0.025
x2 = 0.9573 | 1.489 ± 0.017
x2 = 0.9686 | 1.301 ± 0.015

CCOCCO + C1CCCCC1
viscosity [mPa·s]
Conditions | 298.15 K | 303.15 K | 308.15 K | 313.15 K
101 kPa, x1 = 0.0542 | 0.903 ± 0.016 | – | 0.755 ± 0.013 | –
101 kPa, x1 = 0.1507 | 0.92 ± 0.016 | – | 0.775 ± 0.014 | –
101 kPa, x1 = 0.2541 | 0.952 ± 0.016 | – | 0.805 ± 0.014 | –
101 kPa, x1 = 0.3508 | 0.996 ± 0.017 | – | 0.841 ± 0.014 | –
101 kPa, x1 = 0.452 | 1.057 ± 0.018 | – | 0.888 ± 0.015 | –
101 kPa, x1 = 0.5 | 1.093 ± 0.018 | – | 0.915 ± 0.016 | –
101 kPa, x1 = 0.5497 | 1.135 ± 0.019 | – | 0.945 ± 0.016 | –
101 kPa, x1 = 0.6534 | 1.24 ± 0.02 | – | 1.019 ± 0.017 | –
101 kPa, x1 = 0.7527 | 1.368 ± 0.022 | – | 1.105 ± 0.018 | –
101 kPa, x1 = 0.8492 | 1.524 ± 0.024 | – | 1.206 ± 0.02 | –
101 kPa, x1 = 0.9552 | 1.741 ± 0.028 | – | 1.341 ± 0.022 | –
101.33 kPa, x1 = 0.0993 | 0.864 ± 0.022 | 0.787 ± 0.02 | 0.724 ± 0.019 | 0.663 ± 0.018
101.33 kPa, x1 = 0.2013 | 0.91 ± 0.023 | 0.827 ± 0.021 | 0.755 ± 0.02 | 0.696 ± 0.018
101.33 kPa, x1 = 0.2968 | 0.961 ± 0.024 | 0.875 ± 0.022 | 0.798 ± 0.02 | 0.731 ± 0.019
101.33 kPa, x1 = 0.4007 | 1.035 ± 0.026 | 0.938 ± 0.024 | 0.852 ± 0.022 | 0.786 ± 0.02
101.33 kPa, x1 = 0.495 | 1.112 ± 0.027 | 1.004 ± 0.025 | 0.884 ± 0.022 | 0.837 ± 0.021
101.33 kPa, x1 = 0.5998 | 1.211 ± 0.029 | 1.093 ± 0.027 | 0.992 ± 0.025 | 0.899 ± 0.023
101.33 kPa, x1 = 0.6974 | 1.341 ± 0.032 | 1.2 ± 0.029 | 1.085 ± 0.027 | 0.977 ± 0.024
101.33 kPa, x1 = 0.808 | 1.496 ± 0.036 | 1.341 ± 0.032 | 1.206 ± 0.029 | 1.094 ± 0.027
101.33 kPa, x1 = 0.9006 | 1.714 ± 0.04 | 1.527 ± 0.036 | 1.371 ± 0.033 | 1.231 ± 0.03

CCOCCO + C1CCOC1
viscosity [mPa·s], 101.33 kPa
Conditions | x1 = 0.1003 | x1 = 0.2025 | x1 = 0.3008 | x1 = 0.403 | x1 = 0.5069 | x1 = 0.6012 | x1 = 0.7048 | x1 = 0.7983 | x1 = 0.8839
298.15 K | 0.593 ± 0.004 | 0.677 ± 0.005 | 0.787 ± 0.005 | 0.908 ± 0.006 | 1.057 ± 0.007 | 1.232 ± 0.008 | 1.503 ± 0.01 | 1.701 ± 0.011 | 1.898 ± 0.012
303.15 K | 0.502 ± 0.004 | 0.571 ± 0.004 | 0.66 ± 0.005 | 0.756 ± 0.005 | 0.874 ± 0.006 | 1.011 ± 0.007 | 1.223 ± 0.008 | 1.381 ± 0.009 | 1.546 ± 0.01
308.15 K | 0.475 ± 0.004 | 0.539 ± 0.004 | 0.618 ± 0.005 | 0.702 ± 0.005 | 0.808 ± 0.006 | 0.93 ± 0.006 | 1.091 ± 0.007 | 1.242 ± 0.008 | 1.385 ± 0.009

CC(C)CCO + C1COCCO1
viscosity [mPa·s], 101 kPa
Conditions | x1 = 0.1 | x1 = 0.2067 | x1 = 0.3006 | x1 = 0.4011 | x1 = 0.5011 | x1 = 0.609 | x1 = 0.7009 | x1 = 0.8003 | x1 = 0.908
298.15 K | 1.135 ± 0.02 | 1.151 ± 0.02 | 1.189 ± 0.021 | 1.261 ± 0.022 | 1.37 ± 0.023 | 1.519 ± 0.025 | 1.737 ± 0.028 | 2.122 ± 0.034 | 2.79 ± 0.044
303.15 K | 1.049 ± 0.019 | 1.068 ± 0.019 | 1.116 ± 0.019 | 1.177 ± 0.02 | 1.265 ± 0.021 | 1.388 ± 0.023 | 1.562 ± 0.025 | 1.87 ± 0.03 | 2.429 ± 0.039
308.15 K | 0.9581 ± 0.017 | 0.9865 ± 0.017 | 1.039 ± 0.018 | 1.097 ± 0.019 | 1.156 ± 0.019 | 1.243 ± 0.021 | 1.359 ± 0.022 | 1.615 ± 0.026 | 2.081 ± 0.033

CCOCCO + C1COCCO1
viscosity [mPa·s], 101.33 kPa
Conditions | x1 = 0.1009 | x1 = 0.2023 | x1 = 0.3051 | x1 = 0.4014 | x1 = 0.499 | x1 = 0.602 | x1 = 0.7004 | x1 = 0.8031 | x1 = 0.8976
298.15 K | 1.293 ± 0.009 | 1.299 ± 0.009 | 1.324 ± 0.009 | 1.367 ± 0.009 | 1.424 ± 0.009 | 1.511 ± 0.01 | 1.6 ± 0.01 | 1.733 ± 0.011 | 1.844 ± 0.011
303.15 K | 1.069 ± 0.007 | 1.066 ± 0.007 | 1.085 ± 0.007 | 1.119 ± 0.007 | 1.162 ± 0.008 | 1.228 ± 0.008 | 1.299 ± 0.008 | 1.4 ± 0.009 | 1.487 ± 0.009
308.15 K | 0.982 ± 0.007 | 0.992 ± 0.007 | 1 ± 0.007 | 1.028 ± 0.007 | 1.07 ± 0.007 | 1.12 ± 0.007 | 1.183 ± 0.008 | 1.268 ± 0.008 | 1.344 ± 0.009

CC(C)CCO + C1COCO1
viscosity [mPa·s], 101 kPa
Conditions | x2 = 0.1168 | x2 = 0.2293 | x2 = 0.3377 | x2 = 0.4424 | x2 = 0.5434 | x2 = 0.6409 | x2 = 0.7352 | x2 = 0.8264 | x2 = 0.9146
298.15 K | 3.017 ± 0.066 | 2.523 ± 0.064 | 2.174 ± 0.063 | 1.884 ± 0.062 | 1.366 ± 0.061 | 0.9079 ± 0.06 | 0.8074 ± 0.06 | 0.7367 ± 0.06 | 0.6474 ± 0.06
303.15 K | 2.3 ± 0.025 | 1.806 ± 0.023 | 1.458 ± 0.022 | 1.167 ± 0.021 | 0.9949 ± 0.021 | 0.8818 ± 0.021 | 0.7812 ± 0.021 | 0.7104 ± 0.021 | 0.6212 ± 0.02

CCOCCO + C1COCO1
298.15 K, 101 kPa
Conditions | viscosity [mPa·s]
x2 = 0.1191 | 1.605 ± 0.012
x2 = 0.2332 | 1.379 ± 0.011
x2 = 0.3427 | 1.187 ± 0.0094
x2 = 0.4478 | 1.03 ± 0.0083
x2 = 0.5488 | 0.9124 ± 0.0074
x2 = 0.646 | 0.8144 ± 0.0068
x2 = 0.7395 | 0.7365 ± 0.0062
x2 = 0.8295 | 0.6706 ± 0.0057
x2 = 0.9163 | 0.6129 ± 0.0053

CCOCCO + C=C(C)C(=O)OC
viscosity [mPa·s], 101.3 kPa
Conditions | 298.15 K | 308.15 K
x2 = 0.0533 | 1.64 ± 0.01 | 1.305 ± 0.008
x2 = 0.154 | 1.402 ± 0.009 | 1.146 ± 0.008
x2 = 0.2467 | 1.225 ± 0.008 | 1.022 ± 0.007
x2 = 0.3554 | 1.059 ± 0.007 | 0.9 ± 0.006
x2 = 0.4551 | 0.937 ± 0.006 | 0.807 ± 0.006
x2 = 0.4993 | 0.89 ± 0.006 | 0.77 ± 0.005
x2 = 0.5543 | 0.838 ± 0.006 | 0.727 ± 0.005
x2 = 0.6547 | 0.758 ± 0.005 | 0.658 ± 0.005
x2 = 0.7547 | 0.693 ± 0.005 | 0.6 ± 0.004
x2 = 0.8858 | 0.628 ± 0.004 | 0.537 ± 0.004
x2 = 0.9532 | 0.603 ± 0.004 | 0.517 ± 0.004

CCOCCO + CC#N
viscosity [mPa·s], 101.33 kPa
Conditions | x1 = 0.1016 | x1 = 0.2016 | x1 = 0.2865 | x1 = 0.4004 | x1 = 0.5026 | x1 = 0.6026 | x1 = 0.7122 | x1 = 0.7978 | x1 = 0.8997
298.15 K | 0.458 ± 0.004 | 0.546 ± 0.004 | 0.638 ± 0.005 | 0.79 ± 0.005 | 0.946 ± 0.006 | 1.128 ± 0.007 | 1.346 ± 0.009 | 1.524 ± 0.01 | 1.786 ± 0.011
303.15 K | 0.389 ± 0.003 | 0.461 ± 0.004 | 0.535 ± 0.004 | 0.655 ± 0.005 | 0.781 ± 0.005 | 0.921 ± 0.006 | 1.075 ± 0.007 | 1.236 ± 0.008 | 1.435 ± 0.009
308.15 K | 0.37 ± 0.003 | 0.435 ± 0.003 | 0.501 ± 0.004 | 0.608 ± 0.004 | 0.721 ± 0.005 | 0.845 ± 0.006 | 0.978 ± 0.006 | 1.122 ± 0.007 | 1.295 ± 0.008
